Source: ChEMBL document CHEMBL1147116 (Antimicrob Agents Chemother, 2007)
Values after ≈ are worked out from the molar mass of the structure shown.

Experiments:
Streptococcus pneumoniae [1] = assay: Susceptibility of Streptococcus pneumoniae ATCC 49619 by microdilution method; assay type: functional
[2] = Peak free concentration at 500 mg/24 hrs regimen in vitro PK model; assay type: ADME
[3] = Peak free concentration at 750 mg/24 hrs regimen in vitro PK model; assay type: ADME
[4] = Peak free concentration at 812.5 mg/24 hrs regimen in vitro PK model; assay type: ADME
[5] = Peak free concentration at 875 mg/24 hrs regimen in vitro PK model; assay type: ADME
[6] = Peak free concentration at 1000 mg/24 hrs regimen in vitro PK model; assay type: ADME
[7] = Half life at 500 mg/24 hrs regimen in vitro PK model; assay type: ADME
[8] = Half life at 750 mg/24 hrs regimen in vitro PK model; assay type: ADME
[9] = Half life at 812.5 mg/24 hrs regimen in vitro PK model; assay type: ADME
[10] = Half life at 875 mg/24 hrs regimen in vitro PK model; assay type: ADME
[11] = Half life at 1000 mg/24 hrs regimen in vitro PK model; assay type: ADME
[12] = Peak free concentration at 843.5 mg/24 hrs regimen in vitro PK model; assay type: ADME
[13] = Half life at 843.5 mg/24 hrs regimen in vitro PK model; assay type: ADME
Streptococcus pneumoniae [14] = assay: Susceptibility of Streptococcus pneumoniae BSP-2443 by microdilution method; assay type: functional; details: BSP2443
Streptococcus pneumoniae [15] = assay: microbe, parasite or virus in culture; details: Staphylococcus aureus, ATCC 49619, 24 h
Streptococcus pneumoniae [16] = assay: microbe, parasite or virus in culture; details: Staphylococcus aureus, ATCC 49619
Streptococcus pneumoniae [17] = assay: microbe, parasite or virus in culture; details: Staphylococcus aureus, ATCC 49619, 24 h; remark: listed apart in the source
Streptococcus pneumoniae [18] = assay: microbe, parasite or virus in culture; details: Staphylococcus aureus, ATCC 49619; remark: listed apart in the source
Streptococcus pneumoniae [19] = assay: microbe, parasite or virus in culture; details: Staphylococcus aureus, ATCC 49619, 24 h; remark: listed apart in the source
Streptococcus pneumoniae [20] = assay: microbe, parasite or virus in culture; details: Staphylococcus aureus, ATCC 49619; remark: listed apart in the source
Streptococcus pneumoniae [21] = assay: microbe, parasite or virus in culture; details: Staphylococcus aureus, ATCC 49619; remark: listed apart in the source
Streptococcus pneumoniae [22] = assay: microbe, parasite or virus in culture; details: Staphylococcus aureus, ATCC 49619; remark: listed apart in the source
Streptococcus pneumoniae [23] = assay: microbe, parasite or virus in culture; details: Staphylococcus aureus, ATCC 49619; remark: listed apart in the source
Streptococcus pneumoniae [24] = assay: microbe, parasite or virus in culture; details: Staphylococcus aureus, BSP2443
Streptococcus pneumoniae [25] = assay: microbe, parasite or virus in culture; details: Staphylococcus aureus, BSP2443, 96 h
Streptococcus pneumoniae [26] = assay: microbe, parasite or virus in culture; details: Staphylococcus aureus, BSP2443; remark: listed apart in the source
Streptococcus pneumoniae [27] = assay: microbe, parasite or virus in culture; details: Staphylococcus aureus, BSP2443; remark: listed apart in the source
Streptococcus pneumoniae [28] = assay: microbe, parasite or virus in culture; details: Staphylococcus aureus, BSP2443, 96 h; remark: listed apart in the source
Streptococcus pneumoniae [29] = assay: microbe, parasite or virus in culture; details: Staphylococcus aureus, BSP2443; remark: listed apart in the source
Streptococcus pneumoniae [30] = assay: microbe, parasite or virus in culture; details: Staphylococcus aureus, BSP2443; remark: listed apart in the source
Streptococcus pneumoniae [31] = assay: microbe, parasite or virus in culture; details: Staphylococcus aureus, BSP2443; remark: listed apart in the source
Streptococcus pneumoniae [32] = assay: fAUC/MIC ratio of Streptococcus pneumoniae BSP-2443 at 750 mg
Streptococcus pneumoniae [33] = assay: fAUC/MIC ratio of Streptococcus pneumoniae BSP-2443 at 875 mg
Streptococcus pneumoniae [34] = assay: fAUC/MIC ratio of Streptococcus pneumoniae BSP-2443 at 1000 mg
Streptococcus pneumoniae [35] = assay: fAUC/MIC ratio of Streptococcus pneumoniae ATCC 49610 at 500 mg
Streptococcus pneumoniae [36] = assay: fAUC/MIC ratio of Streptococcus pneumoniae ATCC 49610 at 750 mg
Streptococcus pneumoniae [37] = assay: fAUC/MIC ratio of Streptococcus pneumoniae ATCC 49610 at 875 mg
Streptococcus pneumoniae [38] = assay: fAUC/MIC ratio of Streptococcus pneumoniae BSP-2443 at 812.5 mg
Streptococcus pneumoniae [39] = assay: fAUC/MIC ratio of Streptococcus pneumoniae BSP-2443 at 843.5 mg
Streptococcus pneumoniae [40] = assay: fAUC/MIC ratio of Streptococcus pneumoniae BSP-2443 at 937.5 mg
Streptococcus pneumoniae [41] = assay: fAUC/MIC ratio of Streptococcus pneumoniae ATCC 49610 at 1000 mg
Streptococcus pneumoniae [42] = assay: fAUC/MIC ratio of Streptococcus pneumoniae ATCC 49610 at 812.5 mg
Streptococcus pneumoniae [43] = assay: fAUC/MIC ratio of Streptococcus pneumoniae ATCC 49610 at 843.5 mg
[44] = Peak free concentration at 200 mg/24 hrs regimen in vitro PK model; assay type: ADME
[45] = Peak free concentration at 400 mg/24 hrs regimen in vitro PK model; assay type: ADME
[46] = Peak free concentration at 50 mg/24 hrs regimen in vitro PK model; assay type: ADME
[47] = Peak free concentration at 75 mg/24 hrs regimen in vitro PK model; assay type: ADME
[48] = Peak free concentration at 100 mg/24 hrs regimen in vitro PK model; assay type: ADME
Staphylococcus aureus [49] = assay: Bactericidal activity against Staphylococcus aureus ATCC 49619 at fAUC/MIC of […] after 72 hrs in pharmacodynamic model; assay type: functional; details: ATCC 49619, 72 h
Staphylococcus aureus [50] = assay: Bactericidal activity against Staphylococcus aureus ATCC 49619 at fAUC/MIC of […] after 96 hrs in pharmacodynamic model; assay type: functional; details: ATCC 49619, 96 h
Streptococcus pneumoniae [51] = assay: microbe, parasite or virus in culture; details: Staphylococcus aureus, ATCC 49619; remark: listed apart in the source
Streptococcus pneumoniae [52] = assay: microbe, parasite or virus in culture; details: Staphylococcus aureus, ATCC 49619; remark: listed apart in the source
Streptococcus pneumoniae [53] = assay: microbe, parasite or virus in culture; details: Staphylococcus aureus, ATCC 49619; remark: listed apart in the source
Streptococcus pneumoniae [54] = assay: microbe, parasite or virus in culture; details: Staphylococcus aureus, ATCC 49619; remark: listed apart in the source
Streptococcus pneumoniae [55] = assay: microbe, parasite or virus in culture; details: Staphylococcus aureus, ATCC 49619; remark: listed apart in the source
Streptococcus pneumoniae [56] = assay: microbe, parasite or virus in culture; details: Staphylococcus aureus, BSP2443; remark: listed apart in the source
Streptococcus pneumoniae [57] = assay: microbe, parasite or virus in culture; details: Staphylococcus aureus, BSP2443; remark: listed apart in the source
Streptococcus pneumoniae [58] = assay: microbe, parasite or virus in culture; details: Staphylococcus aureus, BSP2443; remark: listed apart in the source
Streptococcus pneumoniae [59] = assay: microbe, parasite or virus in culture; details: Staphylococcus aureus, BSP2443, 72 h
Streptococcus pneumoniae [60] = assay: microbe, parasite or virus in culture; details: Staphylococcus aureus, BSP2443, 96 h; remark: listed apart in the source
Streptococcus pneumoniae [61] = assay: Bactericidal activity against Streptococcus pneumoniae BSP-2443 with parC S52G, N91D mutation and gyrA S114G mutation at fAUC/MIC of 24 after 96 hrs in pharmacodynamic model; details: BSP2443, 96 h
Streptococcus pneumoniae [62] = assay: Bactericidal activity against Streptococcus pneumoniae BSP-2443 with parC S52G, N91D mutation and gyrA S114G mutation at fAUC/MIC of 24 after 72 hrs in pharmacodynamic model; details: BSP2443, 72 h

Work on C[C@H]1COc2c(N3CCN(C)CC3)c(F)cc3c(=O)c(C(=O)O)cn1c23.C[C@H]1COc2c(N3CCN(C)CC3)c(F)cc3c(=O)c(C(=O)O)cn1c23.O [LEVOFLOXACIN] yielded an MIC (Streptococcus pneumoniae [1]) of 0.025 mg/L, an Activity [2] of 4.1 µg/mL and an Activity [3] of 6.13 µg/mL. For the same compound, the Activity [4] was 6.78 µg/mL, the Activity [5] was 7.19 µg/mL and the Activity [6] was 8.75 µg/mL. For the same compound, the half-life [7] was 8.01 h, the half-life [8] was 7.52 h and the half-life [9] was 7.06 h. For the same compound, the half-life [10] was 8.02 h, the half-life [11] was 7.85 h and the Activity [12] was 7.09 µg/mL. The half-life [13] was 6.98 h, the MIC (Streptococcus pneumoniae [14]) was 0.025 mg/L and the MIC (Streptococcus pneumoniae [15]) was 1.5 mg/L. It also gave an MIC (Streptococcus pneumoniae [16]) of over 32 mg/L, an MIC (Streptococcus pneumoniae [17]) of 0.75 mg/L and an MIC (Streptococcus pneumoniae [18]) of over 32 mg/L. The MIC (Streptococcus pneumoniae [19]) was 1.5 mg/L, the MIC (Streptococcus pneumoniae [20]) was over 32 mg/L and the MIC (Streptococcus pneumoniae [21]) was 0.75 mg/L. The MIC (Streptococcus pneumoniae [22]) was 0.75 mg/L, the MIC (Streptococcus pneumoniae [23]) was 0.75 mg/L and the MIC (Streptococcus pneumoniae [24]) was over 32 mg/L. The MIC (Streptococcus pneumoniae [25]) was 2 mg/L, the MIC (Streptococcus pneumoniae [26]) was 0.75 mg/L and the MIC (Streptococcus pneumoniae [27]) was 0.75 mg/L. For the same compound, the MIC (Streptococcus pneumoniae [28]) was over 32 mg/L, the MIC (Streptococcus pneumoniae [29]) was 0.75 mg/L and the MIC (Streptococcus pneumoniae [30]) was 0.75 mg/L. For the same compound, the MIC (Streptococcus pneumoniae [31]) was 0.75 mg/L, the fAUC/MIC (Streptococcus pneumoniae [32]) was 75 and the fAUC/MIC (Streptococcus pneumoniae [33]) was 94. The fAUC/MIC (Streptococcus pneumoniae [34]) was 117, the fAUC/MIC (Streptococcus pneumoniae [35]) was 55 and the fAUC/MIC (Streptococcus pneumoniae [36]) was 79. It also gave a fAUC/MIC (Streptococcus pneumoniae [37]) of 97, a fAUC/MIC (Streptococcus pneumoniae [38]) of 83 and a fAUC/MIC (Streptococcus pneumoniae [39]) of 86. The fAUC/MIC (Streptococcus pneumoniae [40]) was 104, the fAUC/MIC (Streptococcus pneumoniae [41]) was 114 and the fAUC/MIC (Streptococcus pneumoniae [42]) was 82. For the same compound, the fAUC/MIC (Streptococcus pneumoniae [43]) was 89.

In the case of COc1c(N2C[C@@H]3CCCN[C@@H]3C2)c(F)cc2c(=O)c(C(=O)O)cn(C3CC3)c12 [MOXIFLOXACIN], the MIC (Streptococcus pneumoniae [1]) is reported as 0.025 mg/L (≈ 0.0623 µM), the Activity [44] is reported as 1.1 µg/mL and the Activity [45] is reported as 2.48 µg/mL. For the same compound, the Activity [46] was 0.3 µg/mL, the Activity [47] was 0.45 µg/mL and the Activity [48] was 0.6 µg/mL. It also gave an MIC (Streptococcus pneumoniae [14]) of 0.025 mg/L (≈ 0.0623 µM), an MIC (Staphylococcus aureus [49]) of 0.19 mg/L (≈ 0.473 µM) and an MIC (Staphylococcus aureus [50]) of 0.75 mg/L (≈ 1.87 µM). The MIC (Streptococcus pneumoniae [51]) was 0.125 mg/L (≈ 0.311 µM), the MIC (Streptococcus pneumoniae [52]) was 0.125 mg/L (≈ 0.311 µM) and the MIC (Streptococcus pneumoniae [53]) was 0.125 mg/L (≈ 0.311 µM). For the same compound, the MIC (Streptococcus pneumoniae [54]) was 0.125 mg/L (≈ 0.311 µM), the MIC (Streptococcus pneumoniae [55]) was 0.125 mg/L (≈ 0.311 µM) and the MIC (Streptococcus pneumoniae [56]) was 0.25 mg/L (≈ 0.623 µM). The MIC (Streptococcus pneumoniae [57]) was 0.25 mg/L (≈ 0.623 µM), the MIC (Streptococcus pneumoniae [58]) was 0.25 mg/L (≈ 0.623 µM) and the MIC (Streptococcus pneumoniae [59]) was 4 mg/L (≈ 9.96 µM). The MIC (Streptococcus pneumoniae [60]) was 4 mg/L (≈ 9.96 µM), the MIC (Streptococcus pneumoniae [61]) was 1.5 mg/L and the MIC (Streptococcus pneumoniae [62]) was 0.38 mg/L.
